Data on 19 molecules can be found in US20230107642A1 (Erasca, Inc., priority 2020, published 2023).

Each structure is given as a SMILES string.

In the first assay the target is T1, K-Ras G12C (Homo sapiens, UniProt P01116, G12C).
T1 construct: This protein contained 188 amino acids in total, including an N-terminal 6-Histidine tag; made in house; host or cells: E. coli BL21
As to the kind of experiment: CAF assay (% CAF; method in Example 7, not in this part). It counts as binding. Conditions: 10 uM, 1 h; Table 3.
Turning to `C=CC(=O)N1CCN(c2nc(=O)n3c4c(c(-c5ccc(F)cc5F)c(C#N)cc24)SCC3)[C@@H](C)C1` [Example 132, 7-((S)-4-acryloyl-2-methylpiperazin-1-yl)-10-(2,4-difluorophenyl)-5-oxo-2,3-dihydro-5H-[1,4]thiazino[2,3,4-ij]quinazoline-9-carbonitrile], the “% CAF @ 10 uM, 1h” value worked out at 91.9%. For `C=CC(=O)N1CCN(c2nc(=O)n3c4c(c(-c5ccc(F)cc5F)c(Cl)cc24)SCC3)CC12CN(C)C2=O` (centres unmarked) [Example 133, 7-(5-acryloyl-2-methyl-1-oxo-2,5,8-triazaspiro[3.5]nonan-8-yl)-9-chloro-10-(2,4-difluorophenyl)-2,3-dihydro-5H-[1,4]thiazino[2,3,4-ij]quinazolin-5-one], the “% CAF @ 10 uM, 1h” value is recorded as 51.9%. As to `C=CC(=O)N1CCN(c2nc(=O)n3c4c(c(-c5ccc(F)cc5F)c(Cl)cc24)SCC3)C2COCC21` (centres unmarked) [Example 134, 7-(4-acryloylhexahydro-furo[3,4-b]pyrazin-1(2H)-yl)-9-chloro-10-(2,4-difluorophenyl)-2,3-dihydro-5H-[1,4]thiazino[2,3,4-ij]quinazolin-5-one], the “% CAF @ 10 uM, 1h” value is listed as 85%. As for `C=CC(=O)N1CC2CC(C1)N2c1nc(=O)n2c3c(c(-c4ccc(F)cc4F)c(Cl)cc13)SCC2` [Example 135, 7-(3-acryloyl-3,6-diazabicyclo[3.1.1]heptan-6-yl)-9-chloro-10-(2,4-difluorophenyl)-2,3-dihydro-5H-[1,4]thiazino[2,3,4-ij]quinazolin-5-one], the “% CAF @ 10 uM, 1h” value was 0%. With `C=CC(=O)N1CCN(c2nc(=O)n3c4c(c(-n5ccccc5=O)c(Cl)cc24)SCC3)[C@@H](C)C1` [Example 136, 7-((S)-4-acryloyl-2-methylpiperazin-1-yl)-9-chloro-10-(2-oxopyridin-1(2H)-yl)-2,3-dihydro-5H-[1,4]thiazino[2,3,4-ij]quinazolin-5-one], the “% CAF @ 10 uM, 1h” value is on record as 89.4%. For `C=CC(=O)N1CCN(c2nc(=O)n3c4c(c(-c5c(F)cc(F)cc5F)c(Cl)cc24)SC[C@H]3COC)[C@@H](C)C1` [Example 137, (R)-7-((S)-4-acryloyl-2-methylpiperazin-1-yl)-9-chloro-3-(methoxymethyl)-10-(2,4,6-trifluorophenyl)-2,3-dihydro-5H-[1,4]thiazino[2,3,4-ij]quinazolin-5-one], the “% CAF @ 10 uM, 1h” value is 86.8%.

Take `C=CC(=O)N1C2CC(=O)CC1CN(c1nc(=O)n3c4c(c(-c5ccc(F)cc5F)c(Cl)cc14)SCC3)C2` [Example 138, 7-(9-acryloyl-7-oxo-3,9-diazabicyclo[3.3.1]nonan-3-yl)-9-chloro-10-(2,4-difluorophenyl)-2,3-dihydro-5H-[1,4]thiazino[2,3,4-ij]quinazolin-5-one]: the “% CAF @ 10 uM, 1h” value is recorded as 95.8%. For `C=CC(=O)N1CCN(c2nc(=O)n3c4c(c(-c5ccc(F)cc5F)c(Cl)cc24)SCC3)C[C@H]1C` [Example 139, 7-((R)-4-acryloyl-3-methylpiperazin-1-yl)-9-chloro-10-(2,4-difluorophenyl)-2,3-dihydro-5H-[1,4]thiazino[2,3,4-ij]quinazolin-5-one], the “% CAF @ 10 uM, 1h” value is 94.8%.

For the molecule `C=CC(=O)N1CCN(c2nc(=O)n3c4c(c(-c5ccc(F)cc5F)c(Cl)cc24)SCC3)C[C@@H]1C` [Example 140, 7-((S)-4-acryloyl-3-methylpiperazin-1-yl)-9-chloro-10-(2,4-difluorophenyl)-2,3-dihydro-5H-[1,4]thiazino[2,3,4-ij]quinazolin-5-one], the “% CAF @ 10 uM, 1h” value turned out to be 90.6%. As for `C=CC(=O)N1CCN(c2nc(=O)n3c4c(c(-c5ccc(F)cc5F)c(C(F)(F)F)cc24)SCC3)[C@@H](C)C1` [Example 141, 7-((S)-4-acryloyl-2-methylpiperazin-1-yl)-10-(2,4-difluorophenyl)-9-(trifluoromethyl)-2,3-dihydro-5H-[1,4]thiazino[2,3,4-ij]quinazolin-5-one], the “% CAF @ 10 uM, 1h” value is reported as 95.7%.

On to `C=CC(=O)N1CCN(c2nc(=O)n3c4c(c(-c5ccc(F)cc5F)c(Br)cc24)SCC3)[C@@H](C)C1` [Example 142, 7-((S)-4-acryloyl-2-methylpiperazin-1-yl)-9-bromo-10-(2,4-difluorophenyl)-2,3-dihydro-5H-[1,4]thiazino[2,3,4-ij]quinazolin-5-one], for which the “% CAF @ 10 uM, 1h” value is listed as 94.7%.

Consider `C=CC(=O)N1CCN(c2nc(=O)n3c4c(c(-c5ccc(F)cc5F)c(C5CC5)cc24)SCC3)[C@@H](C)C1` [Example 143, 7-((S)-4-acryloyl-2-methylpiperazin-1-yl)-9-cyclopropyl-10-(2,4-difluorophenyl)-2,3-dihydro-5H-[1,4]thiazino[2,3,4-ij]quinazolin-5-one], for which the “% CAF @ 10 uM, 1h” value worked out at 95.4%. For the molecule `C=CC(=O)N1CCN(c2nc(=O)n3c4c(c(-c5ccc(F)cc5F)c(Cl)cc24)SCC3)C2CSCC21` (centres unmarked) [Example 144, 7-(4-acryloylhexahydrothieno[3,4-b]pyrazin-1(2H)-yl)-9-chloro-10-(2,4-difluorophenyl)-2,3-dihydro-5H-[1,4]thiazino[2,3,4-ij]quinazolin-5-one], the “% CAF @ 10 uM, 1h” value was determined as 64.9%. As for `C=CC(=O)N1CCN(c2nc(=O)n3c4c(c(-c5ccc(F)cc5F)c(Cl)cc24)SCC3)C2CCC21` (centres unmarked) [Example 145, 7-(5-acryloyl-2,5-diazabicyclo[4.2.0]octan-2-yl)-9-chloro-10-(2,4-difluorophenyl)-2,3-dihydro-5H-[1,4]thiazino[2,3,4-ij]quinazolin-5-one], the “% CAF @ 10 uM, 1h” value is 58%. On the same count and under the same terms, then `C=CC(=O)N1CCN(c2nc(=O)n3c4c(c(-c5c(F)cc(F)cc5F)c(Cl)cc24)SCC3)[C@@H](C)C1` [Example 146, (S)-7-(4-acryloyl-2-methylpiperazin-1-yl)-9-chloro-10-(2,4,6-trifluorophenyl)-2,3-dihydro-5H-[1,4]thiazino[2,3,4-ij]quinazolin-5-one], with 90.7%; and `C=CC(=O)N1CCN(c2nc(=O)n3c4c(c(-c5ccc(F)cc5F)c(Cl)cc24)SCC3CN2CCOCC2)[C@@H](C)C1` (stereo partly drawn) [Example 147, 7-((S)-4-acryloyl-2-methylpiperazin-1-yl)-9-chloro-10-(2,4-difluorophenyl)-3-(morpholinomethyl)-2,3-dihydro-5H-[1,4]thiazino[2,3,4-ij]quinazolin-5-one], with 44.6%; and `C=CC(=O)N1CCN(c2nc(=O)n3c4c(c(-c5ccc(F)cc5F)c(Cl)cc24)S(=O)(=O)CC3)[C@@H](C)C1` [Example 148], with 95.9%. As for `C=CC(=O)N1CCN(c2nc(=O)n3c4c(c(-c5ccc(F)cc5F)c(Cl)cc24)S(=O)(=O)CC3)[C@@H](C)C1` [Example 149, (S)-7-((S)-4-acryloyl-2-methylpiperazin-1-yl)-9-chloro-10-(2,4-difluorophenyl)-2,3-dihydro-5H-[1,4]thiazino[2,3,4-ij]quinazolin-5-one 1,1-dioxide], the “% CAF @ 10 uM, 1h” value turned out to be 52.8%. On to `C=CC(=O)N1CCN(c2nc(=O)n3c4c(c(-c5ccc(F)cc5F)c(Cl)cc24)SCC3)[C@@H](CO)C1` [Example 150, 7-((R)-4-acryloyl-2-(hydroxymethyl)piperazin-1-yl)-9-chloro-10-(2,4-difluorophenyl)-2,3-dihydro-5H-[1,4]thiazino[2,3,4-ij]quinazolin-5-one], for which the “% CAF @ 10 uM, 1h” value amounted to 59.9%.

The assay is the same for the next values; noted with them: 10 μM, 1 h; Table 4.
For `C=CC(=O)N1CCN(c2nc(=O)n3c4c(c(-c5c(F)cc(F)cc5F)c(Cl)cc24)SC[C@H]3COC)[C@@H](C)C1` [Example 137, (R)-7-((S)-4-acryloyl-2-methylpiperazin-1-yl)-9-chloro-3-(methoxymethyl)-10-(2,4,6-trifluorophenyl)-2,3-dihydro-5H-[1,4]thiazino[2,3,4-ij]quinazolin-5-one], the “% CAF @ 10 μM, 1 h” value is reported as 86.8%.
